Assay results taken from patent US5739278A, “Compositions for protein tyrosine phosphatases” (University of Washington, priority 1995, dated 1998).

How the values were obtained:
Experiment in all cases: Phosphatase assay with ENDY(P)INASL as substrate
Type in all cases: biochemical
[1] = molecular target: T1, TCΔC11.PTP (Homo sapiens, UniProt P17706)
T1 construct: both the wild type and truncated forms of the T-cell phosphatase; made in house; host or cells: Sf9 cells (baculovirus)
T1 sequence (P17706 1-317 limits assumed): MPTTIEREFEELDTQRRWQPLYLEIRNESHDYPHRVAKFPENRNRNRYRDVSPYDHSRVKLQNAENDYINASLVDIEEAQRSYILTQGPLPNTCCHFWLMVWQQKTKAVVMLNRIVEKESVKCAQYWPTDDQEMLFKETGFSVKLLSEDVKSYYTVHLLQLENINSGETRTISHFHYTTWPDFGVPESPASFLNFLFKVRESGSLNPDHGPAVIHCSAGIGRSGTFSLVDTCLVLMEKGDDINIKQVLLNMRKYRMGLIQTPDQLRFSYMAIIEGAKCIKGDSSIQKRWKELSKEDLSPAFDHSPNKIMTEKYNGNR
Description: (§1) The tyrosine phosphatases TC.PTP, TCΔC11.PTP, and RPTPα were purified from infected Sf9 cells as described recently (Zander et al., Biochemistry 30: 6964-6970, 1991; Daum et al., J. Biol. Chem. 266: 12211-12215, 1991). The 37 kDa form of PTP1B and CD45 were purified from placenta and spleen, respectively (according to Tonks et al., J. Biol. Chem. 263: 6722-6730, 1988; Tonks et al., Biochemistry 27: 8695-8701, 1988).
(§2) Phosphatase assays with ENDY(P)INASL were performed in buffer M6. Aliquots of 30 μl or 60 μl containing the phosphopeptide, the phosphatase (-beads) and effectors were incubated for 10 minutes at 30° C. The reaction was stopped by adding 200 μl of a suspension of 10% activated, acid-washed Norit A charcoal (v/v) in 0.9N HCl, 0.1M pyrophosphate and 2 mM NaH2 PO4 (according to Streuli et al., Proc. Natl. Acad. Sci. USA 86: 8698-8702, 1989). The mixture was cleared by 10-minute centrifugation and the radioactivity of 150 μl of the supernate was determined. Assays with MBP and RCML were performed as described in Tonks et al., J. Biol. Chem. 263: 6722-6730, 1988. Protein concentration was determined with BSA as standard (Bradford, Anal. Biochem. 72: 248-254, 1976).

[2] = molecular target: T2, PTP1B (Homo sapiens, UniProt P18031)
T2 construct: The 37 kDa form of PTP1B; from tissue; host or cells: placenta
T2 sequence (P18031 1-321 limits assumed): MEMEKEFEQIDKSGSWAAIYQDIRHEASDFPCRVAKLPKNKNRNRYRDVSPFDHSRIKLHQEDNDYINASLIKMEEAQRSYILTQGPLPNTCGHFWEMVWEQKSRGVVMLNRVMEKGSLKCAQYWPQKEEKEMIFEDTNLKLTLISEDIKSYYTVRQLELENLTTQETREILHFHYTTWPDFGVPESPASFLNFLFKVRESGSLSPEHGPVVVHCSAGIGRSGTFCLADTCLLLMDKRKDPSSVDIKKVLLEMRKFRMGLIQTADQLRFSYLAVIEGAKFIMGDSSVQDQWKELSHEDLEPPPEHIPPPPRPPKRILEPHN
Description: as §1, §2

[3] = molecular target: T3, CD45 (Homo sapiens, UniProt P08575)
T3 construct: CD45 were purified from placenta and spleen, respectively; from tissue; host or cells: spleen
T3 sequence (P08575 26-1306): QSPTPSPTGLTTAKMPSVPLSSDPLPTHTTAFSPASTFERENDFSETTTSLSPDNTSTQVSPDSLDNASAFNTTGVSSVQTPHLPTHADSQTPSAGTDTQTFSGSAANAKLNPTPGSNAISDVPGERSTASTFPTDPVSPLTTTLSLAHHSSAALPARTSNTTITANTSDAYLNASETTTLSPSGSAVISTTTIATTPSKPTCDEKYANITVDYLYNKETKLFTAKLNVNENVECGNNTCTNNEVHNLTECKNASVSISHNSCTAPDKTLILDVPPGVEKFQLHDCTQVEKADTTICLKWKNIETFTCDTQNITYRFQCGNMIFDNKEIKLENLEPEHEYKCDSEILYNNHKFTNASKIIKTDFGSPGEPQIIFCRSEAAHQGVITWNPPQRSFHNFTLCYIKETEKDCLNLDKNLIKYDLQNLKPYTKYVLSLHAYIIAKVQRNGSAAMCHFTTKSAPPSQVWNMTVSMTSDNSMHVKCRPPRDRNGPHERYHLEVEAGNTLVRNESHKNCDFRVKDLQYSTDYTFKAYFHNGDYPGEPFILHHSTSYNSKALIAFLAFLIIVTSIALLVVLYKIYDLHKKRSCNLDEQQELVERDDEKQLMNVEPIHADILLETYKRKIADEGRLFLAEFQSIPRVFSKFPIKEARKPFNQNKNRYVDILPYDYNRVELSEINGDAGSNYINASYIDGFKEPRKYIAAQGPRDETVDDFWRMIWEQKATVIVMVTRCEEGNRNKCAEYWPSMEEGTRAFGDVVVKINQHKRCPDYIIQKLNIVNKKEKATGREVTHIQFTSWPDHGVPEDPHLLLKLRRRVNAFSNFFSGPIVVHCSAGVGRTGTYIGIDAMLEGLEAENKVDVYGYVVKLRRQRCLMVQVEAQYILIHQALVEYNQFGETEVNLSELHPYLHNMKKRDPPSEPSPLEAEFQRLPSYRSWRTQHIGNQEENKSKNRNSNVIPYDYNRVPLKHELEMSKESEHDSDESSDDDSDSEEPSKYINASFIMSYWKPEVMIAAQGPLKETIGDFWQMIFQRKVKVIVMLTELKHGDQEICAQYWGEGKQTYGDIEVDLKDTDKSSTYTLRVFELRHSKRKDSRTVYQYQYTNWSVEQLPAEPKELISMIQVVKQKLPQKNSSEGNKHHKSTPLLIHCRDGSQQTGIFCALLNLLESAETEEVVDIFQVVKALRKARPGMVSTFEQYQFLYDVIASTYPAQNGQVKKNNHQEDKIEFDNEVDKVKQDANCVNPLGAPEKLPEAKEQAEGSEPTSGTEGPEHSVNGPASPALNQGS
Description: as §1, §2

[4] = molecular target: T4, TC.PTP (Homo sapiens, UniProt P17706); conditions: TC.PTP
T4 construct: made in house; host or cells: Sf9 cells (baculovirus)
T4 sequence (P17706 1-415): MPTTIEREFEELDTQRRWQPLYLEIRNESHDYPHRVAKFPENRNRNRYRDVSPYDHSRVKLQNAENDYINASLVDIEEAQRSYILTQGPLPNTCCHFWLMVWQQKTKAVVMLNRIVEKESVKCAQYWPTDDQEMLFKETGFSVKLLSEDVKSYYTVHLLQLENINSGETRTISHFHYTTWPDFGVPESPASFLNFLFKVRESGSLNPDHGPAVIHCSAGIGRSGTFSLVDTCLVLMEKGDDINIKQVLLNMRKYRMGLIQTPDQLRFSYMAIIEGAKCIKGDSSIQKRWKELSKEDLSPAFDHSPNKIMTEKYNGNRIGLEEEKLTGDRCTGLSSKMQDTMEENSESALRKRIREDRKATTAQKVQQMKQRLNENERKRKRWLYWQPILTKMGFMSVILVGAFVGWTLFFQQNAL
Description: as §1, §2

[5] = molecular target: T5, RPTPα (Homo sapiens, UniProt P18433)
T5 construct: made in house; host or cells: Sf9 cells (baculovirus)
Description: as §1, §2

[6] = 10 min, effector 0.1 mM, read-out: Phosphatase activity in percent of the value obtained in the absence of effectors
[7] = 10 min, effector 2.0 mM, read-out: Phosphatase activity in percent of the value obtained in the absence of effectors
[8] = 10 min, effector 5.0 mM, read-out: Phosphatase activity in percent of the value obtained in the absence of effectors
[9] = 10 min, effector 0.5 mM, read-out: Phosphatase activity in percent of the value obtained in the absence of effectors
[10] = 10 min, effector 1.0 mM, read-out: Phosphatase activity in percent of the value obtained in the absence of effectors

T5 sequence (P18433 20-802): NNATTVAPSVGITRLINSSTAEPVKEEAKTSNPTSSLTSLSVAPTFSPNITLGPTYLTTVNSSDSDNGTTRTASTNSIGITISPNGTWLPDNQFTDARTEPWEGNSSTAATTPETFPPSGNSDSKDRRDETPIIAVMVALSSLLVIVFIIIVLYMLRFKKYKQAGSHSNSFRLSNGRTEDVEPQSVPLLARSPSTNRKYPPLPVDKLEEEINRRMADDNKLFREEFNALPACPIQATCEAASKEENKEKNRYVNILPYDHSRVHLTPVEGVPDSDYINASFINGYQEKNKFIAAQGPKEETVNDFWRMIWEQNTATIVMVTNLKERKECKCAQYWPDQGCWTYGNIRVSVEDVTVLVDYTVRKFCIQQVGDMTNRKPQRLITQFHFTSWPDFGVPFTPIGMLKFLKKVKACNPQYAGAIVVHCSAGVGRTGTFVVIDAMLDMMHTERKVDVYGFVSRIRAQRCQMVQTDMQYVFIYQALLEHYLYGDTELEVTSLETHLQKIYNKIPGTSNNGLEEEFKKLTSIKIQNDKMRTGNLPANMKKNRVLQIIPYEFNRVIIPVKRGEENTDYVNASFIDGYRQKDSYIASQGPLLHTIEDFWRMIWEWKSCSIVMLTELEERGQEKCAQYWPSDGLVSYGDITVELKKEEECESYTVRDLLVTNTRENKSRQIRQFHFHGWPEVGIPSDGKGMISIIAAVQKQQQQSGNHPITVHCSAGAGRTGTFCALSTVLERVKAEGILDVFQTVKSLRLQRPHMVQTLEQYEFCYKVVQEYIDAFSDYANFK

[Zn+2] [Zn^2+]
Phosphatase activity in percent of the value obtained in the absence of effectors ([1]; effector 0.01 mM): 61% | Phosphatase activity in percent of the value obtained in the absence of effectors ([1]; effector 0.1 mM): 54% | Phosphatase activity in percent of the value obtained in the absence of effectors ([1]; effector 1.0 mM): 21% | Phosphatase activity in percent of the value obtained in the absence of effectors ([2]; effector 0.01 mM): 65% | Phosphatase activity in percent of the value obtained in the absence of effectors ([2]; effector 0.1 mM): 17% | Phosphatase activity in percent of the value obtained in the absence of effectors ([2]; effector 1.0 mM): 6% | Phosphatase activity in percent of the value obtained in the absence of effectors ([3]; effector 0.01 mM): 92% | Phosphatase activity in percent of the value obtained in the absence of effectors ([3]; effector 0.1 mM): 53% | Phosphatase activity in percent of the value obtained in the absence of effectors ([3]; effector 1.0 mM): 3% | Phosphatase activity in percent of the value obtained in the absence of effectors ([4]; effector 0.01 mM): 61% | Phosphatase activity in percent of the value obtained in the absence of effectors ([4]; effector 0.1 mM): 26% | Phosphatase activity in percent of the value obtained in the absence of effectors ([4]; effector 1.0 mM): 8% | Phosphatase activity in percent of the value obtained in the absence of effectors ([5]; effector 0.01 mM): 99% | Phosphatase activity in percent of the value obtained in the absence of effectors ([5]; effector 0.1 mM): 77% | Phosphatase activity in percent of the value obtained in the absence of effectors ([5]; effector 1.0 mM): 4%

NCCCCNCCCN [spermidine]
remaining activity at 100 µM [1, 6]: 67% | remaining activity at 2000 µM [1, 7]: 65% | remaining activity at 5000 µM [1, 8]: 66% | Phosphatase activity in percent of the value obtained in the absence of effectors ([2]; effector 0.1 mM): 89% | Phosphatase activity in percent of the value obtained in the absence of effectors ([2]; effector 2.0 mM): 94% | Phosphatase activity in percent of the value obtained in the absence of effectors ([2]; effector 5.0 mM): 92% | remaining activity at 100 µM [3, 6]: 103% | remaining activity at 2000 µM [3, 7]: 92% | remaining activity at 5000 µM [3, 8]: 83% | remaining activity at 100 µM [4, 6]: 92% | remaining activity at 2000 µM [4, 7]: 88% | remaining activity at 5000 µM [4, 8]: 91% | remaining activity at 100 µM [5, 6]: 72% | remaining activity at 2000 µM [5, 7]: 60% | remaining activity at 5000 µM [5, 8]: 34%

NCCCNCCCCNCCCN [spermine]
remaining activity at 100 µM [1, 6]: 81% | remaining activity at 500 µM [1, 9]: 60% | remaining activity at 1000 µM [1, 10]: 55% | Phosphatase activity in percent of the value obtained in the absence of effectors ([2]; effector 0.1 mM): 87% | Phosphatase activity in percent of the value obtained in the absence of effectors ([2]; effector 0.5 mM): 89% | Phosphatase activity in percent of the value obtained in the absence of effectors ([2]; effector 1.0 mM): 82% | remaining activity at 100 µM [3, 6]: 117% | remaining activity at 500 µM [3, 9]: 100% | remaining activity at 1000 µM [3, 10]: 85% | remaining activity at 100 µM [4, 6]: 119% | remaining activity at 500 µM [4, 9]: 109% | remaining activity at 1000 µM [4, 10]: 82% | remaining activity at 100 µM [5, 6]: 89% | remaining activity at 500 µM [5, 9]: 57% | remaining activity at 1000 µM [5, 10]: 41%

heparin
Phosphatase activity in percent of the value obtained in the absence of effectors ([1]; effector 0.01 μM): 88% | Phosphatase activity in percent of the value obtained in the absence of effectors ([1]; effector 0.1 μM): 4% | Phosphatase activity in percent of the value obtained in the absence of effectors ([1]; effector 1.0 μM): 0% | Phosphatase activity in percent of the value obtained in the absence of effectors ([2]; effector 0.01 μM): 91% | Phosphatase activity in percent of the value obtained in the absence of effectors ([2]; effector 0.1 μM): 0% | Phosphatase activity in percent of the value obtained in the absence of effectors ([2]; effector 1.0 μM): 0% | Phosphatase activity in percent of the value obtained in the absence of effectors ([3]; effector 0.01 μM): 8% | Phosphatase activity in percent of the value obtained in the absence of effectors ([3]; effector 0.1 μM): 0% | Phosphatase activity in percent of the value obtained in the absence of effectors ([3]; effector 1.0 μM): 0% | Phosphatase activity in percent of the value obtained in the absence of effectors ([4]; effector 0.01 μM): 8% | Phosphatase activity in percent of the value obtained in the absence of effectors ([4]; effector 0.1 μM): 1% | Phosphatase activity in percent of the value obtained in the absence of effectors ([4]; effector 1.0 μM): 0% | Phosphatase activity in percent of the value obtained in the absence of effectors ([5]; effector 0.01 μM): 82% | Phosphatase activity in percent of the value obtained in the absence of effectors ([5]; effector 0.1 μM): 40% | Phosphatase activity in percent of the value obtained in the absence of effectors ([5]; effector 1.0 μM): 19%
